2 compounds from PMC8147984, “Effects of Sponge-Derived Alkaloids on Activities of the Bacterial α-D-Galactosidase and Human Cancer Cell α-N-Acetylgalactosaminidase” (Biomedicines, 2021) can be followed below.

The target in this test is T1, α-D-galactosidase (α-PsGal) (Pseudoalteromonas sp. KMM 701, UniProt Q19AX0).
T1 sequence (Q19AX0 1-710): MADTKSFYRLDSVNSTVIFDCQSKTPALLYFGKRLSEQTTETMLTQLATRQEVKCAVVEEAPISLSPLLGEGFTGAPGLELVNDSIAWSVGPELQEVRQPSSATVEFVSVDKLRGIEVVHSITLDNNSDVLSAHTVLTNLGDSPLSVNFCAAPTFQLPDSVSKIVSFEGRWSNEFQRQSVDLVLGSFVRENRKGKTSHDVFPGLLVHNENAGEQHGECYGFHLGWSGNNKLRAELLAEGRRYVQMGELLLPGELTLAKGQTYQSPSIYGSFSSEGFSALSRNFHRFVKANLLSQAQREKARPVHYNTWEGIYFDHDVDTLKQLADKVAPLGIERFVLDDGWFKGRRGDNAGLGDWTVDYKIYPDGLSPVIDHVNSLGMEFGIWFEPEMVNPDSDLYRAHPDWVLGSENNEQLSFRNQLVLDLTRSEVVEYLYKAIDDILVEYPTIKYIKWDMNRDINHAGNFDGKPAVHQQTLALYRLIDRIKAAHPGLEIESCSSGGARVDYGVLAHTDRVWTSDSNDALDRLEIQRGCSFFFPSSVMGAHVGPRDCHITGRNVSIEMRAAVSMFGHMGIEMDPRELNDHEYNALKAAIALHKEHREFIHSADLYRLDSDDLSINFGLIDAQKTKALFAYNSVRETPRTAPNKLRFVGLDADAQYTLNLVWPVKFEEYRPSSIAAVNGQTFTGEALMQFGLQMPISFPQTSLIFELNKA
As to the kind of experiment: Irreversibility of α-PsGal inhibition (dialysis experiment). The format is biochemical. To be noted: dialysis against buffer for 60 h at 4 °C; activity did not recover. The protocol: To determine the reversibility of the α-PsGal activity inhibition by alkaloids 2, 3, 8, and 9 15 µL of 0.625 mM aqueous solution of the compounds 2 and 3 or 6 µL of 2.5 mM ethanol solution of the compound 8 and 9 were added to 75 µL of the enzyme solution in 0.05 M sodium phosphate buffer (pH 7.0). After 30 min of the mixture incubation the aliquot of 30 µL was taken and 120 µL of 3.3 mM pNPG solution were added to initiate the reaction; the reaction was stopped by addition of 150 µL of 1M Na2CO3. The α-D-galactosidase activity was determined, as described above. The remaining reaction mixture was dialyzed against 1 L of 0.02 M sodium phosphate buffer (pH 7.0) for 60 h at 4 °C. The buffer was changed 3 times during the dialysis. The enzyme activity was determined, as described above. A sample of α-PsGal treated with H2O or EtOH in the absence of the inhibitor (75 µL of the enzyme solution and 15 µL of H2O or 6 µL of EtOH, respectively) was dialyzed and used as a control for determination of the initial activity. The experiment was carried out in two replicates. The residual activity was calculated as described above.

Molecules are shown by their SMILES.

Regarding `COc1cc2ccnc3c2c(c1O)N(C)C=C3` [Compound 2, isoaaptamine], the “irreversibility of α-PsGal inhibition” value was “irreversibly inactivate”.

For `COc1cc2ccnc3c2c(c1O)NC=C3` [Compound 3, 9-demethylaaptamine], the “irreversibility of α-PsGal inhibition” value is reported as “irreversibly inactivate”.
